Source: BindingDB's records for patent US20250195508 (University of Central Florida Research Foundation, 2025)

Molecular target: Ephrin type-A receptor 2 (Homo sapiens, UniProt P29317)
Test: In Vitro Biochemical Kinase Assay
Source text: In vitro biochemical kinase assays were done using recombinant human EPHA2. compounds were subjected to in vitro biochemical kinase assays done using recombinant human ephrin type-A receptor 2 (EPHA2) (expressed in insect cells) in a Z′-LYTE FRET-based kinase assay.

Ephrin type-A receptor 2, sequence (P29317 whole entry): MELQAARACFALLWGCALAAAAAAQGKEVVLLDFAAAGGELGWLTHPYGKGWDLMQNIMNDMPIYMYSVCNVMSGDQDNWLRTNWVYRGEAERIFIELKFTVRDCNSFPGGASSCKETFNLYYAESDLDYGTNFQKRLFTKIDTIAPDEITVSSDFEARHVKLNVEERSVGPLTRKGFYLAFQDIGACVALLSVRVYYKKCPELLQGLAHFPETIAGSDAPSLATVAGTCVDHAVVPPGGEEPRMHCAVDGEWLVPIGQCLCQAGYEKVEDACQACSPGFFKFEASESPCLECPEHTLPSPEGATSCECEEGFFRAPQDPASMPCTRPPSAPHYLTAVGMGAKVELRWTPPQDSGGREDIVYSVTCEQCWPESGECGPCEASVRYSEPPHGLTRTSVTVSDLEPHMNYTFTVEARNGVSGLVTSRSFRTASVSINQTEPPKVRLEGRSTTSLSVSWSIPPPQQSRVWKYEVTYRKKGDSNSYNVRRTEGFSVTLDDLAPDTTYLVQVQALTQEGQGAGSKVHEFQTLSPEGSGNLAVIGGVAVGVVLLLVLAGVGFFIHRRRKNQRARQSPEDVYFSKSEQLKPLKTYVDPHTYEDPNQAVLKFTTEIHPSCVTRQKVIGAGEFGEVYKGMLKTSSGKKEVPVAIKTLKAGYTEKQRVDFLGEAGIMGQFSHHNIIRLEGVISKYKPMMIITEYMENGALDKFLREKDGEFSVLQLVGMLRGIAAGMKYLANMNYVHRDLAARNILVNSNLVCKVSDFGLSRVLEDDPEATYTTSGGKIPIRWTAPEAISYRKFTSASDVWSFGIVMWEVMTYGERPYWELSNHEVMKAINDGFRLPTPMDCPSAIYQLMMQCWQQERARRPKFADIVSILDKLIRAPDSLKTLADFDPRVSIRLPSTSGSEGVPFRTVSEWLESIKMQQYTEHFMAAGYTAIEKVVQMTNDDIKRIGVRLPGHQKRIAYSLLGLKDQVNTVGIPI

| IC50 | SMILES |
| --- | --- |
| > 10 µM | CCN1CCN(Cc2ccc(NC(=O)c3ccnc(NC(=O)c4cncc(-c5cccs5)c4)c3)cc2C(F)(F)F)CC1 [US20250195508, Name TL5-145] |
| > 10 µM | CCN1CCN(Cc2ccc(NC(=O)c3cc(NC(=O)c4cncc(-c5cccs5)c4)cc(OC)c3)cc2C(F)(F)F)CC1 [MLS000911581] |
| > 10 µM | CCN1CCN(Cc2ccc(NC(=O)c3cncc(NC(=O)c4cncc(-c5cccs5)c4)c3)cc2C(F)(F)F)CC1 [US20250195508, Name TL5-139] |
